This is an account of results in PMC7879702 (Antiviral research, 2020).

Data set [1] deals with GAK. To be noted: at 10 μM; cited from earlier work.
Data set [2] has as its system DENV. It is filed as cell-based, dengue virus. To be noted: read-out: EC50, DENV infection in MDDC.
The test system of data set [3] is DENV2. It is filed as cell-based, dengue virus. To be noted: read-out: EC50, DENV2 infection.
Data set [4] has as its system VEEV (TC-83). It counts as cell-based, Venezuelan equine encephalitis virus. Conditions: read-out: EC50, VEEV (TC-83) infection.
Data set [5] relates to DENV. It counts as cell-based. To be noted: BIKE-inducible T-REx-293 cells, doxycycline induction, 72 hours treatment.
Data set [6] relates to EBOV. It is filed as cell-based, Ebola virus. To be noted: read-out: EC50, EBOV infection.
In data set [7] the target is BIKE. Conditions: cited from earlier work.
Data set [8] deals with primary human monocyte derived dendritic cells (MDDC).
The test system of data set [9] is Huh7 cells.
In data set [10] the target is AAK1. Conditions: at 10 μM; cited from earlier work.
The subject of data set [11] is phospho-AP2M1 (T156). It is filed as cell-based.
Data set [12] concerns ERK2. Conditions: read-out: IC50, ERK2; cited from earlier work.
Data set [13] deals with TAK1. Conditions: read-out: IC50, TAK1; cited from earlier work.
Data set [14] has as its system DENV2. It counts as cell-based, dengue virus.

The term EC50 denotes the concentration at which the effect is half-maximal. In general, IC50 refers to the concentration at which inhibition is half-maximal. One may read the CC50 as the concentration giving 50% cytotoxicity. A high value points to better tolerance by the cells. Take `COc1cc(O)c2c(c1)/C=C/C[C@H](O)[C@H](O)C(=O)/C=C\C[C@H](C)OC2=O` [5Z-7-oxozeaenol]: the “KINOMEscan binding, GAK” value in data set [1] is 10 % of control. Besides, the EC50 in [2] was found to be 540 nM; in [3], 2470 nM; in data set [4], 2600 nM; in data set [6], 4090 nM. Also, the “DENV infection upon BIKE expression in drug-treated cells” value in data set [5] is “partially restored”. The “KINOMEscan binding, BIKE” value in [7] (at 10 μM) is reported as 3.8 % of control. The IC50 in data set [7] (read-out: IC50 value for BIKE inhibition or binding (Discussion)) is 3.8 nM; in data set [12], 80 nM; in [13], 8 nM. The same compound had a CC50 in data set [8] of 5490 nM. For the same compound, the “cellular toxicity in the EBOV assay” value in data set [9] is given as “no apparent cellular toxicity within the concentration range tested”. For the same compound, the “KINOMEscan binding, AAK1” value in data set [10] is 13 % of control. The “effect on AP2M1 phosphorylation” value in data set [11] was “dramatic reduction in AP2M1 phosphorylation”. The “effect on phospho-AP2M1 level at 10 μM” value in data set [11] was “significant reduction”.

Turning to `C[C@@H]1C[C@@H]([C@H](O)CC2CC(=O)NC(=O)C2)C(=O)[C@@H](C)C1` [cycloheximide], the “effect on viral infection at 6 hours postinfection” value in data set [14] was “suppressed viral infection”.
